Test results taken from publication PMC10096842, “Identification of Flavone Derivative Displaying a 4′-Aminophenoxy Moiety as Potential Selective Anticancer Agent in NSCLC Tumor Cells” (Molecules, 2023).

What was measured:
[1] = test system: p21^waf1/cip1 protein level in A549 cells; experiment: Western blot of p21 expression, A549; format: cell-based, human; settings: A549, higher APF-1 concentration (3 µM), 24 h
Protocol: (§1) Analysis of cell extracts (20 µg total proteins) was performed using SDS-PAGE 12% (Bio-Rad Laboratories, Hercules, CA, USA). Electrophoresis was carried out under reducing conditions, where uniformly negatively charged proteins move according to their mass. The proteins were then transferred to a PVDF membrane using the Trans-Blot Turbo instrument (Bio-Rad Laboratories, USA), after which the membrane was blocked with Every Blot Blocking Buffer (Bio-Rad Laboratories, USA). P21 protein levels were analyzed by Western blotting using a specific rabbit monoclonal primary antibody that specifically recognizes p21 protein (ab109199, Cambridge, MA, USA), and a secondary antibody anti-rabbit HRP (TA130023, OriGene Technologies, Rockville, MD 20850, USA) and detected by chemiluminescence using the Chemidoc device (Bio-Rad Laboratories, USA). […] GADPH protein levels were analyzed by Western blotting using a specific rabbit monoclonal primary antibody that specifically recognizes this protein (ARC0205, catalog number MA535235, Thermo Scientific, Waltham, MA, USA) and secondary antibody anti-rabbit HRP (TA130023, OriGene Technologies, Rockville, MD 20850, USA), also in this case detected by chemiluminescence with the Chemidoc instrument (Bio-Rad Laboratories, USA).

A549 NSCLC cells = experiment: MTT cell viability assay, A549; format: cell-based, human; settings: for IC50: A549, 72 h, MTT; for SI (Selectivity Index): IC50 HDF / IC50 A549
Protocol: (§2) The human non-small cell lung cancer (NSCLC) and Human Dermal Fibroblasts (HDF) cell lines were all obtained from the American Type Culture Collection (ATCC). The H1975 (CRL-5908™) cell line was grown in RPMI 1640 medium (ECB2000) while the A549 (CCL-185™) and HDF were grown in complete DMEM medium (ECM0095) All cultures were supplemented with 10% fetal bovine serum (FBS), 2 mM L-glutamine, 100 U/mL penicillin, and 100 µg/mL streptomycin,. All cell lines were routinely maintained in 75 cm^2 flasks in a cell incubator at 37 °C, 5% CO2, and 95% relative humidity. The cell cultures were detached by trypsinization with 0.5% trypsin in PBS containing 0.025% EDTA. All cell culture reagents were supplied by Euroclone (Milan, Italy).
(§3) The number of metabolically active cells, and thus cell viability, was assessed by a 3-(4,5-dimethylthiazol-2-yl)-2,5-diphenyltetrazolium bromide (MTT) assay as previously described. The NSCLC cell lines (A549 and H1975) and HDF were seeded in 96-well plates to reach 50% confluence at 24 h; then, the medium was removed and replaced with 0.2 mL of fresh culture medium containing increasing compound concentrations (0–160 µM). After 72 h, the medium from each well was removed and replaced with fresh medium supplemented with MTT at a final concentration of 200 µg/mL. After incubation for 4 h at 37 °C, 0.2 mL of DMSO was added to each well followed by multiwell shaking for 4 min. The absorbance was read on a multiwell scanning microplate reader (BioTek Synergy HT MicroPlate Reader Spectrophotometer, BioTek Instruments Inc., Winooski, VT, USA) at 570 nm using the extraction buffer as a blank. The optical density in the control group (untreated cells) was considered as 100% viability. The relative cell viability (%) was calculated as (OD570 of treated samples/OD570 of untreated samples) × 100. Dose-dependent curves were therefore generated for the cytotoxic studies. The 50% inhibiting concentration (IC50) was determined by non-linear regression analysis with a three-parameter fit by utilizing SigmaPlot 12.0 Software, USA, Systat Software, Inc. SigmaPlot for Windows. Each experiment was performed at least five times in triplicate.

H1975 NSCLC cells = experiment: MTT cell viability assay, H1975; format: cell-based, human; settings: for IC50: H1975, 72 h, MTT; for SI (Selectivity Index): IC50 HDF / IC50 H1975
Protocol: as §2, §3

HDF cells [2] = experiment: Cell cycle analysis (PI, flow cytometry), HDF; format: cell-based, human; settings: 1.5 and 3 µM, 24 h
Protocol: (§4) Cell cycle analyses were performed by using a Guava easyCyte flow cytometer (Merk-Millipore, MA, USA) and the DNA content was determined by propidium iodide (PI) method as previously described. Briefly, A549, H1975, and HDF were treated with APF-1 at 1.5 and 3 µM concentrations for 24 h. Cells were harvested, washed twice with cold PBS, and fixed with 70% ice-cold ethanol and kept at […] for 2 h. The fixed cells were centrifugated at 4 °C and suspended in a master mix solution containing PBS, PI (40 µg/mL), and RNase (100 µg/mL) for 30 min at 37 °C in the dark. Samples were run through the Guava easyCyte flow cytometer set to internal cell cycle analysis protocol and 5000 cells per sample were measured. The percentage of cell cycle phases (G0/G1, S, and G2/M) was quantified using MultiCycle AV Cell Cycle in FCS Express 7 software (DeNovo Software, Pasadena, CA, USA). The experiment was performed three times in triplicate.

[3] = Annexin V-FITC/PI apoptosis flow cytometry, HDF; format: cell-based, human; settings: human, HDF cells, HDF, 24 h, read-out: live/viable (Annexin V−PI−) cells
Protocol: (§5) Apoptosis was analyzed by flow cytometry using an Annexin V-FITC apoptosis detection kit (Biolegend, San Diego, CA, USA), according to the manufacturer’s instructions. A549, H1975, and HDF cells were treated with […] concentrations of APF-1 (1.5 and 3 µM). […] Briefly, control and treated cells were trypsinized, washed twice with ice-cold PBS, and resuspended in 1X Annexin binding buffer at a final concentration of 1.0 × 10^6 cell/mL. A total of 5 µL Annexin V-FITC and 10 µL Propidium Iodide (PI) were added to the cell suspension and the mixture was incubated for 15 min at rt in the dark. Samples were analyzed using the Guava EasyCyte flow cytometer (Merk-Millipore, Louis Missouri, USA). A total of 5000 events were acquired for each sample. Annexin V-FITC was detected as a green fluorescence (λex = 488 nm; λem = 516 nm) and PI was detected as a red fluorescence (λex = 535 nm; λem = 617 nm). Early apoptosis is defined by Annexin V+/PI− staining, late apoptosis is defined by Annexin V+/PI+ staining, and necrosis is defined by Annexin V−/PI+ staining.

HDF cells [4] = experiment: Annexin V-FITC/PI apoptosis flow cytometry, HDF; format: cell-based, human
Protocol: as §5

H1975 cells [5] = experiment: Cell cycle analysis (PI, flow cytometry), H1975; format: cell-based, human; settings: H1975, 3 µM, 24 h
Protocol: as §4

H1975 cells [6] = experiment: Annexin V-FITC/PI apoptosis flow cytometry, H1975; format: cell-based, human
Protocol: as §5

A549 cells [7] = experiment: Cell cycle analysis (PI, flow cytometry), A549; format: cell-based, human; settings: 24 h
Protocol: as §4

[8] = test system: p21^waf1/cip1 protein level in H1975 cells; experiment: Western blot of p21 expression, H1975; format: cell-based, human; settings: 24 h
Protocol: as §1

[9] = test system: p21 expression in HDF cell line; experiment: Western blot of p21 expression, HDF; format: cell-based, human; settings: APF-1 treatment, 24 h
Protocol: as §1

A549 cells [10] = experiment: Annexin V-FITC/PI apoptosis flow cytometry, A549; format: cell-based, human
Protocol: as §5

[11] = test system: human dermal fibroblasts (HDF); experiment: MTT cell viability assay, HDF; format: cell-based; settings: Fibroblast, 72 h
Protocol: as §2, §3

[12] = LogP determination (1-octanol/PBS partition, UV-vis); format: physicochemical; settings: for logP: 1-octanol/PBS, pH 7.4, 1-octanol/PBS pH 7.4, read-out: Experimental LogP
Protocol: LogP was determined as previously described. Briefly, solutions of each APF were prepared in 1-octanol, and UV-vis spectra were acquired to determine the λmax. After having placed 2.5 mL of each solution in 10 mL conical centrifuge tubes, PBS was added (2.5 mL, pH 7.4) and the biphasic system was mixed using a vortex mixer (VELP Scientifica, Usmate Velate MB, Italy) followed by centrifugation (2000× g, 5 min). Then, the octanol phase absorption was measured at λmax. The partition coefficient Ko/w was calculated according to the following equation:Ko/w = [APF]oct/[APF]PBS = […] where Ai is the initial measured absorbance in octanol, pre-extraction, and Af is the final measured absorbance in octanol, post-extraction.

advanced NSCLC = test system: advanced NSCLC; design: method as in PMID 12177774, PMID 17912235, PMID 36674503; settings: treatment of advanced NSCLC; cited from earlier work

## Nc1ccc(Oc2ccc3oc(-c4cccc(Oc5ccccc5)c4)cc(=O)c3c2)cc1 [APF-1]
[1]
  increase in p21^waf1/cip1 expression with respect to untreated cells: 1.5 fold
A549 NSCLC cells
  IC50: 4.2 ± 0.4 µM
  SI (Selectivity Index): 16
A549 NSCLC cells; Homo sapiens
  IC50: 4 µM
H1975 NSCLC cells; H1975
  SI increase compared with doxorubicin: ~ 4.5 fold
H1975 NSCLC cells
  IC50: 2.3 ± 0.2 µM
H1975 NSCLC cells; Homo sapiens, NCI-H1975, 72 h
  IC50: 2 µM
HDF cells [2]
  effect on cell cycle profile: not affected
[3]; 1.5 µM
  viability at 24 h, 1.5 µM: 92%
[3]; 3 µM
  viability at 24 h, 3 µM: 86%
HDF cells [4]; HDF, 1.5 and 3 µM, 24 h
  effect on the number of late apoptotic cells: did not detect any effect
HDF cells [4]; HDF, highest APF-1 concentration (3 µM), 24 h
  increase in early apoptosis: 4.7 fold
HDF cells [4]; fibroblasts, Figure 3D
  induction of apoptosis (sum of early and late apoptosis) compared with cancer cells: lower
H1975 cells [5]
  cells in G0/G1 phase: 24%
  cells in G2/M phase: 70%
  cells in S phase: 5.6%
  increase in G2/M phase population compared to untreated cells: 2 fold
H1975 cells [6]; H1975, 1.5 µM, 24 h
  early apoptotic (Annexin V+PI−) cells: 16%
  late apoptotic (Annexin V+PI+) cells: 11%
H1975 cells [6]; H1975, 3 µM, 24 h
  increase of early apoptosis compared to untreated cells: 2.6 fold
  increase of late apoptosis compared to untreated cells: 6.5 fold
H1975 cells [6]; Homo sapiens, NCI-H1975, 24 h, H1975, 1.5 µM, 24 h, read-out: live/viable (Annexin V−PI−) cells
  viability at 1.5 µM: 70.9%
H1975 cells [6]; Homo sapiens, NCI-H1975, 24 h, H1975, 3 µM, 24 h, read-out: live/viable (Annexin V−PI−) cells
  viability at 3 µM: 46%
H1975 cells [6]; cancer cells (H1975), Figure 3D
  induction of apoptosis (sum of early and late apoptosis) with respect to untreated cells: about 4 times
A549 cells [7]; A549, 1.5 µM
  increase in G2/M phase compared to the untreated cells: 2.8 fold
A549 cells [7]; A549, 3 µM
  cells in G2/M phase: 75%
[8]; H1975, 1.5 µM
  increase in p21 level with respect to untreated cells: 3 fold
[8]; H1975, 3 µM
  increase in p21 level with respect to untreated cells: 3 fold
[9]
  change in p21 expression: did not observe any significant change
A549 cells [10]; A549, 3 µM, 24 h
  increase in early apoptosis with respect to untreated cells: 2 fold
A549 cells [10]; Homo sapiens, A549, 24 h, A549, 1.5 µM, 24 h, read-out: live/viable (Annexin V−PI−) cells
  viability at 1.5 µM: 86%
A549 cells [10]; Homo sapiens, A549, 24 h, A549, 3 µM, 24 h, read-out: live/viable (Annexin V−PI−) cells
  viability at 3 µM: 73%
A549 cells [10]; cancer cells (A549), Figure 3D
  induction of apoptosis (sum of early and late apoptosis) with respect to untreated cells: about 4 times
[11]
  IC50: 62 ± 6 µM
[12]
  logP: 3.2 ± 0.1

## Nc1ccc(Oc2ccc3oc(-c4ccccc4)cc(=O)c3c2)cc1 [APF-2, 6-(4-aminophenoxy)-2-(phenyl)-4H-chromen-4-one]
A549 NSCLC cells; Homo sapiens
  IC50: 22 ± 3 µM
A549 NSCLC cells
  SI (Selectivity Index): >8
H1975 NSCLC cells; Homo sapiens, NCI-H1975, 72 h
  IC50: 50 ± 5 µM
H1975 NSCLC cells
  SI (Selectivity Index): >3
[11]
  IC50: > 160 µM
[12]; 1-octanol/PBS pH 7.4
  Experimental LogP: 2.1 ± 0.3
[12]
  logP: 2.3

## Nc1ccc(Oc2ccc3c(=O)cc(-c4cccc(Oc5ccccc5)c4)oc3c2)cc1 [APF-3, 7-(4-aminophenoxy)-2-(3′-phenoxy)phenyl-4H-chromen-4-one]
A549 NSCLC cells; Homo sapiens
  IC50: 33 ± 2 µM
A549 NSCLC cells
  SI (Selectivity Index): 2
H1975 NSCLC cells; Homo sapiens, NCI-H1975, 72 h
  IC50: 40 ± 4 µM
H1975 NSCLC cells
  SI (Selectivity Index): 2
[11]
  IC50: 80 ± 3 µM
[12]
  logP: 3.3 ± 0.2

## Nc1ccc(Oc2cccc3oc(-c4cccc(Oc5ccccc5)c4)cc(=O)c23)cc1 [APF-4, 5-(4-aminophenoxy)-2-(3′-phenoxy)phenyl-4H-chromen-4-one]
A549 NSCLC cells; Homo sapiens
  IC50: 32 ± 5 µM
A549 NSCLC cells
  SI (Selectivity Index): >5
H1975 NSCLC cells; Homo sapiens, NCI-H1975, 72 h
  IC50: > 160 µM
[11]
  IC50: > 160 µM
[12]
  logP: 2.9 ± 0.2

## Nc1ccc(Oc2ccc3oc(-c4ccc(Oc5ccccc5)cc4)cc(=O)c3c2)cc1 [APF-5, 6-(4-aminophenoxy)-2-(4′-phenoxy)phenyl-4H-chromen-4-one]
A549 NSCLC cells; Homo sapiens
  IC50: 7 ± 3 µM
A549 NSCLC cells
  SI (Selectivity Index): 7
H1975 NSCLC cells; Homo sapiens, NCI-H1975, 72 h
  IC50: 10 ± 5 µM
H1975 NSCLC cells
  SI (Selectivity Index): 5.5
[11]
  IC50: 55 ± 2 µM
[12]
  logP: 3.2 ± 0.3

## COc1cccc2c1C(=O)c1c(O)c3c(c(O)c1C2=O)C[C@@](O)(C(=O)CO)C[C@@H]3O[C@H]1C[C@H](N)[C@H](O)[C@H](C)O1 [Doxorubicin, reference compound]
A549 NSCLC cells; Homo sapiens
  IC50: 0.8 ± 0.2 µM
A549 NSCLC cells
  SI (Selectivity Index): 18
H1975 NSCLC cells; Homo sapiens, NCI-H1975, 72 h
  IC50: 2.5 ± 0.4 µM
H1975 NSCLC cells
  SI (Selectivity Index): 6
Advanced NSCLC
  overall response rate: 30–50%
[11]
  IC50: 14 ± 4 µM
